Assay results published in patent US10670605B2, “Cysteine reactive probes and uses thereof” (The Scripps Research Institute, priority 2015, dated 2020).

How the values were obtained:
Assay in all cases: Competitive isoTOP-ABPP, cell lysates
Type in all cases: binding
[1] = target: T1, NCF1 C378 (P14598) (Homo sapiens, UniProt P14598)
T1 sequence (P14598 1-390): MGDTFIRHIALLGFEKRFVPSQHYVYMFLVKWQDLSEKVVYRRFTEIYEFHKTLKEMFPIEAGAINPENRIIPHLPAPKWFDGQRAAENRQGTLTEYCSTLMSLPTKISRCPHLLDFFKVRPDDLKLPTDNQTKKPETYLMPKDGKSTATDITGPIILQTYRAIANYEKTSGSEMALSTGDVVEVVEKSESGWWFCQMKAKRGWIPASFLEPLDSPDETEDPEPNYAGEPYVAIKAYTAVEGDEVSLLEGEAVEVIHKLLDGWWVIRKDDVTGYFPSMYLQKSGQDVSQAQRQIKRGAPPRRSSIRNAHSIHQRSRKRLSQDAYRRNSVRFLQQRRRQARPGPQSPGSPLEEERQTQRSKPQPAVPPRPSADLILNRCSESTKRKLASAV

[2] = target: T2, UBA7 C599 (P41226) (Homo sapiens, UniProt P41226)
T2 sequence (P41226 1-1012): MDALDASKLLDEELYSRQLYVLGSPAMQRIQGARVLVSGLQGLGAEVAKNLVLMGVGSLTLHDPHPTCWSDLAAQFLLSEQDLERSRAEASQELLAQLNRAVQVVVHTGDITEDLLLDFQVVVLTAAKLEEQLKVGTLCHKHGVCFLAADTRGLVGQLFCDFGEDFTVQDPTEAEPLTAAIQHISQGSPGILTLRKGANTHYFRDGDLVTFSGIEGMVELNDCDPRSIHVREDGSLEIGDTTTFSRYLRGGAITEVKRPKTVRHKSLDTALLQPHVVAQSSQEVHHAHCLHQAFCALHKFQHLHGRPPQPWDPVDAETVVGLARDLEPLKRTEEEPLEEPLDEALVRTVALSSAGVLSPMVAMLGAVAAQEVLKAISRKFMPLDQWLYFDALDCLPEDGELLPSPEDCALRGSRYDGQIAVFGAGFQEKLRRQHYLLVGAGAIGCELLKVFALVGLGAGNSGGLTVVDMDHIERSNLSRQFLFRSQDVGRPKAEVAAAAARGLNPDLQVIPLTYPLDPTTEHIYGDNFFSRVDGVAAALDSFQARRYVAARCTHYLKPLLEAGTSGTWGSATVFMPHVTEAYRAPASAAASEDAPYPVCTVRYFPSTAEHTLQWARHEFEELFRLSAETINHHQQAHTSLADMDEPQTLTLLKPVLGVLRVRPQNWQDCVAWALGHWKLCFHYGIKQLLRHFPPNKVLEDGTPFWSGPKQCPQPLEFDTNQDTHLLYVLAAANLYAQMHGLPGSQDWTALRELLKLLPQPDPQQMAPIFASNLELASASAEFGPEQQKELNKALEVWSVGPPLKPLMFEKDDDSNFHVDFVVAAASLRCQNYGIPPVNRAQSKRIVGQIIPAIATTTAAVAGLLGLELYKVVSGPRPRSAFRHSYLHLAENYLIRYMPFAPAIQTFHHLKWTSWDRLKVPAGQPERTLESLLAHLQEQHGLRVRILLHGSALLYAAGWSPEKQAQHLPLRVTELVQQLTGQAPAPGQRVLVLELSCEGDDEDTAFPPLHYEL

[3] = target: T3, CASP2 C370 (P42575) (Homo sapiens, UniProt P42575); settings: for isoTOP-ABPP reactivity ratio, P42575_C370: 500 μm, in-vitro_ramos
T3 sequence (P42575 1-452): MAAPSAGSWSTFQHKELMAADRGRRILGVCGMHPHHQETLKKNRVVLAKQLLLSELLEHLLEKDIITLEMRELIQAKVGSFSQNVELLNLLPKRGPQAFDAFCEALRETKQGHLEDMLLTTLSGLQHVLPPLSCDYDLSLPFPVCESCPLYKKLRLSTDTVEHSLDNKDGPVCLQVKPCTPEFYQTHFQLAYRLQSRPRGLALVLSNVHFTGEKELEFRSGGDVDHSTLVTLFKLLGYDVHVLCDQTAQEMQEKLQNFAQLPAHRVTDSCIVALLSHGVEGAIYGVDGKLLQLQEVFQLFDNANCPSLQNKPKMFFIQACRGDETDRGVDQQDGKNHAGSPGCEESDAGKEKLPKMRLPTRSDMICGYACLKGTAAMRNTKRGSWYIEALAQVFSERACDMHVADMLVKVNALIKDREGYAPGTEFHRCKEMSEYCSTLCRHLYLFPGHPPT

SMILES: COc1cc(NC(=O)CCl)cc(OC)c1 [compound 43]
- isoTOP-ABPP reactivity profile ratio, P14598_C378 ([1]; 500 μm, in-vitro_ramos): 1.2

SMILES: CC(C)CCOCCNC(=O)CCl [compound 27]
- isoTOP-ABPP ratio (reactivity profile), P41226_C599 ([2]; 500 μm in-vitro ramos): 1.3
- isoTOP-ABPP ratio (reactivity profile), P41226_C599 ([2]; 500 μm in-vitro ramos_231): 0.7
- isoTOP-ABPP ratio (reactivity profile), P42575_C370 ([3]; 500 μm in-vitro ramos_231): 0.9

SMILES: C=CC(=O)N1CCC(c2noc3ccc(F)cc23)CC1 [compound 37]
- isoTOP-ABPP reactivity ratio, P42575_C370 [3]: 0.7

SMILES: COc1ccc(C2CC(c3cccs3)=NN2C(=O)CCl)cc1 (centres unmarked) [compound 4]
- R value (DMSO/fragment) ([2]; 250 μM, in vitro, Ramos): 20.0
- R value (DMSO/fragment) ([1]; 250 μM, in vitro, Ramos): 1.4

SMILES: O=C(CCl)N1CCN(S(=O)(=O)c2ccccc2F)CC1 [compound 10]
- isoTOP-ABPP ratio, P42575_C370 ([3]; 500 μM, invitro, ramos): 1.2
- isoTOP-ABPP ratio, P14598_C378 ([1]; 500 μM, invitro, ramos): 1.1

SMILES: O=C(CCl)Nc1ccccc1C1CCCCCC1 [compound 35]
- isoTOP-ABPP reactivity ratio, P41226_C599 ([2]; 500 μm, in-vitro_ramos): 1.2

SMILES: Cc1ccc(C=C(C#N)C(=O)NCCN2CCOCC2)cc1 [compound 41]
- isoTOP-ABPP reactivity ratio, P42575_C370 [3]: 1.4

SMILES: C=CC(=O)N(c1ccccc1)c1ccc(Br)cc1 [compound 5]
- isoTOP-ABPP ratio, P14598_C378 ([1]; 500 μM, invitro, ramos): 4.0

SMILES: O=C(CCl)Nc1cc(C(F)(F)F)cc(C(F)(F)F)c1 [compound 3]
- R value (DMSO/fragment) ([3]; 500 μM, invitro, ramos): 7.4
- R value (DMSO/fragment) ([1]; 500 μM, invitro, ramos): 2.1

SMILES: COc1ccc2c(c1)CCCN2C(=O)CCl [compound 2]
- R value (DMSO/fragment) ([1]; 500 μM, invitro, ramos): 4.4

SMILES: N#C/C(=C\c1cc(C(F)(F)F)cc(C(F)(F)F)c1)C(N)=O [compound 23]
- isoTOP-ABPP ratio (reactivity profile), P41226_C599 ([2]; 500 μm in-vitro ramos): 3.2
- isoTOP-ABPP ratio (reactivity profile), P42575_C370 ([3]; 500 μm in-vitro ramos): 2.1

SMILES: C=CC(=O)Nc1cc(C)c(Br)cc1C [compound 40]
- isoTOP-ABPP reactivity ratio, P42575_C370 [3]: 2.7

SMILES: Cn1cc(S(=O)(=O)N2CCOCC2)cc1C(=O)NC(=O)CCl [compound 11]
- isoTOP-ABPP ratio, P41226_C599 ([2]; 500 μM, invitro, ramos): 1.9
- isoTOP-ABPP ratio, P42575_C370 ([3]; 500 μM, invitro, ramos): 6.0

SMILES: O=C(CCl)NCCc1c[nH]c2ccccc12 [compound 13]
- isoTOP-ABPP ratio, P14598_C378 ([1]; 500 μM, invitro, ramos): 0.7

SMILES: CC(Br)C(=O)Nc1cc(C(F)(F)F)cc(C(F)(F)F)c1 (centres unmarked) [compound 24]
- isoTOP-ABPP ratio (reactivity profile), P42575_C370 ([3]; 500 μm in-vitro ramos): 2.2

SMILES: O=C(CCl)NC12CC3CC(CC(C3)C1)C2 [compound 21]
- isoTOP-ABPP ratio (reactivity profile), P41226_C599 ([2]; 500 μm in-vitro ramos): 2.5

SMILES: O=C(CCl)N1CCC(C(O)(c2ccccc2)c2ccccc2)CC1 [compound 20]
- isoTOP-ABPP ratio (reactivity profile), P41226_C599 ([2]; 500 μm in-vitro ramos): 12.2
- isoTOP-ABPP ratio (reactivity profile), P41226_C599 ([2]; 500 μm in-vitro ramos_231): 1.1

SMILES: CCN(CC)c1ccc(S(N)(=O)=O)cc1NC(=O)CCl [compound 30]
- isoTOP-ABPP reactivity ratio, P42575_C370 [3]: 4.1
